Publication PMC4791264, “Characterization and bioactivity of novel calcium antagonists - N-methoxy-benzyl haloperidol quaternary ammonium salt” (Oncotarget, 2015)
Where two headings read alike, the source gives them in different places.

Columns and labels:
SD rats [1] = assay: Effect on rat hemodynamics (left ventricular pressure, heart rate); settings: anesthetized SD rats, 3 min after administration
[2] = target: T1, L-type calcium channels in rat ventricular myocytes (Rattus norvegicus, UniProt P0DP29+P22002); assay: Inhibition of L-type calcium current (patch-clamp); type: cell-based; settings: 0.1 to 10 μM, rat myocardiocytes
T1 construct: reduced the amplitude of the L-type calcium current in rat myocardiocytes; endogenous in cells; host or cells: rat ventricular myocytes (single cells)

H9c2 cell (Cacnalc−/−) = assay: LDH in culture medium under hypoxia/reoxygenation, H9c2 (Cacnalc−/−) cells; type: cell-based; settings: 1 × 10^−6 mol/L
Method: (§1) Myocardiocytes H9c2 cell and the one which the L-type calcium channel gene was knock-out, the […]-/-) were incubated separately in culture plates. When cell confluence reached 85%, the cells were incubated for another 12 hours in DMEM medium with 0.5% FBS. Then cells were randomly divided into 6 groups, namely the control group, H/R group, DMSO group, H/R+X1(1 × 10^-6 mol/L) group, H/R+X2 (1 × 10^-6 mol/L) group and H/R+X3 (1 × 10^-6 mol/L) group. The hypoxic DMEM culture medium and reoxygenation medium were used in H/R process. The final volume was 500 uL. The compounds (X1, X2, X3) were administered continuously during the hypoxia/reoxygenation process. Finally, cell supernatant was collected and LDH was measured by colorimetric method according to the Kit instruction by manufacturer (Nanjin Jiancheng Lit. China).

[3] = system: isolated rat thoracic aortic rings; assay: Vasodilation on KCl (60 mM)-contracted isolated rat thoracic aortic rings; settings: KCl (60 mM)-induced contraction of rat aortic rings; 0.1 to 10 μM
Method: The vasodilation activity of compounds was evaluated in isolated rat thoracic aortic rings according to the methods of Greenwood and Polster et al. The aortic rings were allowed to equilibrate in Krebs bicarbonate solution ((PSS), containing118.0 mM NaCl, 4.7 mM KCl, 1.2 mM KH2PO4, 1.2 mM MgSO4.7H2O, 5.0 mM glucose, 25.0 mM NaHCO3, and 2.5 mM CaCl2.7H2O at 37°C and were gassed with 95% O2 and 5% CO2 for 90 min at a testing tension. KCl (60 mM) was used to depolarize the aortic rings. When the amplitude of the contraction reached a plateau, compounds X1, X2, X3 were added. Cumulative concentration-response curves to all compounds were determined in the absence and presence of endothelium. Using tips of forceps, the endothelium was mechanically removed from some rings by gently rubbing the lumen, if absence of endothelium is needed. Acetylcholine was used to confirm the removal of endothelium from the aortic rings.

SD rats [4] = settings: rat, in vivo
rat myocardiocytes = assay: Inhibition of KCl-induced extracellular calcium influx (Fluo-3 fluorescence, confocal microscopy); type: cell-based; settings: 60 mM KCl; for reduction of Ca^2+ fluorescent intensity, maximum degree: 0.1–10 μM
Method: Fluorescence intensity of Ca^2+ in myocardial cell was determined by laser scanning confocal microscopy (ACAS/ULTIMA312, Meridian Instruments) as previously described. Rat myocardiocytes were grown on 24-mm glass coverslips in 6-well plates in DMEM containing 10% FBS. After 24 h, the cells were incubated with Fluo 3-AM (20 μM) for 60 min in the dark at 37°C. Then, the cells were washed with HBSS three times to remove extracellular Fluo 3-AM. HBSS (HEPES-buffered physiological saline solution) contains 130 mM NaCl, 2.5 mM KCl, 1.2 mM MgCl2, 10 mM HEPES, 10 mM glucose, and 2 mM CaCl2, pH 7.4 (adjusted with NaOH). […] KCl was added into the cultured cells to induce the influx of extracellular Ca^2+ in HBSS and changes in fluorescence were recorded. Myocardiocytes were incubated for 30 min with 0.1, 1, and 10 μM compounds before adding KCl. Effect of compounds on KCl-induced changes in fluorescence was investigated.

H9c2 cell = assay: LDH in culture medium under hypoxia/reoxygenation, H9c2 cells; type: cell-based; settings: 1 × 10^−6 mol/L, vs H/R group (p < 0.01)
Method: as §1

Compound	HR (SD rats [1]; 0.25 mg/kg)	LVEDP (SD rats [1]; 0.25 mg/kg)	LVSP (SD rats [1]; 0.25 mg/kg)	HR (SD rats [1]; 0.5 mg/kg)	LVEDP (SD rats [1]; 0.5 mg/kg)	LVSP (SD rats [1]; 0.5 mg/kg)	HR (SD rats [1]; 1 mg/kg)	LVEDP (SD rats [1]; 1 mg/kg)	LVSP (SD rats [1]; 1 mg/kg)	maximum inhibition rate of L-type calcium current [2] [%]	IC50 [2] [nM]	LDH under H/R (H9c2 cell (Cacnalc−/−))	IC50 [3] [nM]	maximum inhibition on the vascular ring contraction [3] [%]	+LVdp/dtmax (SD rats [4]; 0.25 mg/kg)	−LVdp/dtmax (SD rats [4]; 0.25 mg/kg)	+LVdp/dtmax (SD rats [4]; 0.5 mg/kg)	−LVdp/dtmax (SD rats [4]; 0.5 mg/kg)	+LVdp/dtmax (SD rats [4]; 1 mg/kg)	−LVdp/dtmax (SD rats [4]; 1 mg/kg)	also measured
COc1ccc([C@@H]2Sc3ccccc3N(CCN(C)C)C(=O)[C@@H]2OC(C)=O)cc1 [Dil, diltiazem]	322 ± 25	30.21 ± 3.99	138.54 ± 21.35	321 ± 29	33.26 ± 4.26	130.25 ± 17.33	304 ± 47	38.51 ± 7.45	127.55 ± 21.23												+LVdp/dtmax (SD rats [1]; 0.25 mg/kg): 1099.22 ± 142.66; −LVdp/dtmax (SD rats [1]; 0.25 mg/kg): 787.25 ± 74.25; +LVdp/dtmax (SD rats [1]; 0.5 mg/kg): 922.11 ± 129.44; −LVdp/dtmax (SD rats [1]; 0.5 mg/kg): 689.76 ± 77.62; +LVdp/dtmax (SD rats [1]; 1 mg/kg): 899.08 ± 128.32; −LVdp/dtmax (SD rats [1]; 1 mg/kg): 622.94 ± 84.42
COc1ccc(C[N+]2(CCCC(=O)c3ccc(F)cc3)CCC(O)(c3ccc(Cl)cc3)CC2)cc1 (stereo not shown) [Compound X1]	355 ± 61	20.34 ± 3.06	145.32 ± 20.08	356 ± 55	21.02 ± 3.08	145.38 ± 18.06	342 ± 51	29.66 ± 4.33	132.32 ± 18.66	97.2	472	remained unchanged	432	92.5	1043.01 ± 143.24	899.04 ± 142.24	1011.02 ± 152.04	908.21 ± 151.02	946.02 ± 132.23	884.82 ± 148.09	reduction of Ca^2+ fluorescent intensity, maximum degree (rat myocardiocytes): 76.5%; LDH under H/R (H9c2 cell): decreased
COc1ccc(CCN(C)CCCC(C#N)(c2ccc(OC)c(OC)c2)C(C)C)cc1OC (stereo not shown) [Ver, verapamil]	328 ± 28	25.39 ± 7.45	132.24 ± 12.74	302 ± 77	38.21 ± 8.18	112.74 ± 21.08	298 ± 41	42.21 ± 6.23	102.21 ± 14.21												+LVdp/dtmax (SD rats [1]; 0.25 mg/kg): 1022.49 ± 130.44; −LVdp/dtmax (SD rats [1]; 0.25 mg/kg): 932.24 ± 95.54; +LVdp/dtmax (SD rats [1]; 0.5 mg/kg): 925.38 ± 172.37; −LVdp/dtmax (SD rats [1]; 0.5 mg/kg): 699.87 ± 91.11; +LVdp/dtmax (SD rats [1]; 1 mg/kg): 885.32 ± 122.21; −LVdp/dtmax (SD rats [1]; 1 mg/kg): 657.80 ± 85.55; reduction of Ca^2+ fluorescence intensities (rat myocardiocytes; 10 μM, positive control): 86%
COc1ccccc1C[N+]1(CCCC(=O)c2ccc(F)cc2)CCC(O)(c2ccc(Cl)cc2)CC1 (stereo not shown) [Compound X3]	358 ± 52	23.86 ± 3.65	142.94 ± 18.08	362 ± 55	24.91 ± 3.07	148.98 ± 20.02	368 ± 54	23.69 ± 3.77	152.88 ± 21.04	70.2	721	remained unchanged	7420	48.66	1129.28 ± 162.26	989.92 ± 161.23	1221.12 ± 170.02	1021.23 ± 153.77	1248.36 ± 182.32	1022.15 ± 162.24	reduction of Ca^2+ fluorescent intensity, maximum degree (rat myocardiocytes): 24.53%; LDH under H/R (H9c2 cell): decreased
COc1cccc(C[N+]2(CCCC(=O)c3ccc(F)cc3)CCC(O)(c3ccc(Cl)cc3)CC2)c1 (stereo not shown) [Compound X2]	365 ± 59	22.12 ± 3.76	145.98 ± 16.42	362 ± 63	22.08 ± 3.44	146.66 ± 18.04	356 ± 53	26.93 ± 3.26	138.94 ± 16.06	82.8	493	remained unchanged	4220	67.08	1029.32 ± 144.08	982.13 ± 154.56	1022.14 ± 142.21	984.12 ± 144.32	902.89 ± 138.88	955.23 ± 146.08	reduction of Ca^2+ fluorescent intensity, maximum degree (rat myocardiocytes): 53.6%; LDH under H/R (H9c2 cell): decreased
COC(=O)C1=C(C)NC(C)=C(C(=O)OC)C1c1ccccc1[N+](=O)[O-] [Nif, nifedipine]	372 ± 29	29.33 ± 5.56	137.21 ± 18.26	397 ± 73	33.64 ± 8.12	132.11 ± 11.10	311 ± 54	45.50 ± 6.43	105.00 ± 12.23												
